In patent publication EP0745595A1, “3-(3-Aryloxyphenyl)-1-(substituted methyl)-s-triazine-2,4,6-oxo or thiotrione herbicidal agents” (American Cyanamid Company, priority 1995, dated 1996):

Legend:
Type in all cases: in vivo
[1] = system: ABUTILON THEOPHRASTI, MEDIC.; assay: Postemergence herbicidal evaluation, ABUTH (Velvetleaf); conditions: rated four to five weeks after treatment, averaged
Outline: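 Velvetleaf (Abutilon theophrasti) seedlings were raised in jiffy flats for about two weeks and then sprayed postemergence. The test compound was dispersed in a 50/50 acetone/water mixture containing 0.5% TWEEN®20 and applied through a nozzle operating at 40 psi. Plants were kept on greenhouse benches and rated 0-9 four to five weeks after treatment.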

CHENOPODIUM ALBUM, L. [2] = assay: Postemergence herbicidal evaluation, CHEAL (Lambsquarters, Common); conditions: rated four to five weeks after treatment, averaged
Outline: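 Seedlings of common lambsquarters (Chenopodium album) were raised in jiffy flats for roughly two weeks, then sprayed postemergence through a nozzle at 40 psi with test compound dispersed in 50/50 acetone/water containing 0.5% TWEEN®20 surfactant. Plants were kept on greenhouse benches under standard care and rated visually on a 0-9 scale versus controls.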

[3] = system: ABUTILON THEOPHRASTI, MEDIC.; assay: Preemergence herbicidal evaluation, ABUTH (Velvetleaf); conditions: four to five weeks after treatment
Description: (§1) Results of herbicide evaluation are expressed on a rating scale (0-9). The scale is based upon a visual observation of plant stand, vigor, malformation, size, chlorosis and overall plant appearance as compared with a control.
(§2) The preemergence herbicidal activity of the test compounds of the present invention is exemplified by the following tests in which the seeds of a variety of monocotyledonous and dicotyledonous plants are separately mixed with potting soil and planted on top of approximately one inch of soil in separate pint cups. […] The treated cups are then placed on greenhouse benches, watered and cared for in accordance with conventional greenhouse procedures. From four to five weeks after treatment, the tests are terminated and each cup is examined and rated according to the rating system provided in Example 40.
(§3) The compounds evaluated are reported by compound number given in Example 40.

[4] = system: AMBROSIA ARTEMISIIFOLIA, L.; assay: Preemergence herbicidal evaluation, AMBEL (Ragweed, Common); conditions: four to five weeks after treatment
Outline: (§4)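 Seeds sown in potting soil cups, then sprayed preemergence with aqueous acetone compound solution at about 0.125 to 0.50 kg per hectare. Greenhouse-grown, rated 4–5 weeks after treatment on a 0–9 visual scale against control.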

CASSIA OBTUSIFOLIA, L. = assay: Preemergence herbicidal evaluation, CASOB (Sicklepod); conditions: four to five weeks after treatment
Outline: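 Seeds of various monocot and dicot plants, including sicklepod, were each mixed with potting soil and sown on roughly one inch of soil in separate pint cups for preemergence testing. Treated cups were kept on greenhouse benches, watered and maintained conventionally. Four to five weeks after treatment, each cup was visually rated on a 0-9 scale against a control.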

CHENOPODIUM ALBUM, L. [5] = assay: Preemergence herbicidal evaluation, CHEAL (Lambsquarters, Common); conditions: four to five weeks after treatment
Outline: as §4

[6] = system: ECHINOCHLOA CRUS-GALLI, (L) BEAU; assay: Preemergence herbicidal evaluation, ECHCG (Barnyardgrass); conditions: four to five weeks after treatment
Outline: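 Barnyardgrass seeds were mixed with potting soil and planted on about one inch of soil in pint cups for preemergence testing. Treated cups were kept on greenhouse benches, watered and maintained by standard greenhouse practice. After four to five weeks, each cup was visually rated on a 0-9 scale against an untreated control.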

[7] = system: SETARIA VIRIDIS, (L) BEAU; assay: Preemergence herbicidal evaluation, SETVI (Foxtail, Green); conditions: four to five weeks after treatment
Description: as §1, §2, §3

[8] = system: GLYCINE MAX(L) MERR. CV. WILLIAMS; assay: Preemergence herbicidal evaluation, GLXMAW (Soybean, Williams); conditions: four to five weeks after treatment
Outline: as §4

[9] = system: ORYZA SATIVA, L. TEBONNET; assay: Preemergence herbicidal evaluation, ORYSAT (Rice, Tebonnet); conditions: four to five weeks after treatment
Description: as §1, §2, §3

[10] = system: TRITICUM AESTIVUM, CV. APOLLO; assay: Preemergence herbicidal evaluation, TRZAWO (Wheat, Winter, CV. APOLLO); conditions: four to five weeks after treatment
Outline: as §4

ZEA MAYS L. = assay: Preemergence herbicidal evaluation, ZEAMX (Corn, Field); conditions: four to five weeks after treatment
Outline: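 Corn (Zea mays) seeds were mixed with potting soil and planted on about one inch of soil in pint cups, then treated preemergence. Cups were kept on greenhouse benches, watered and maintained conventionally, and after four to five weeks were visually rated on a 0-9 scale versus an untreated control.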

CYPERUS IRIA = assay: Preemergence weed control under flooded paddy conditions, CYPIR (Rice Flatsedge); conditions: preemergence weeds, rated three to four weeks after treatment
Outline: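 Seeds or propagating organs of rice flatsedge were planted in the top 0.5 cm of silt loam soil in 32 oz. plastic containers, 10.5 cm across and without drainage holes. Water was kept 1.5 to 3 cm above the soil throughout. Treated containers were kept on greenhouse benches, and herbicidal effect was visually rated on a 0-9 scale against a control.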

[11] = system: CYPERUS SEROTINUS, ROTTB.; assay: Preemergence weed control under flooded paddy conditions, CYPSE (Flatsedge); conditions: preemergence weeds, rated three to four weeks after treatment
Outline: (§5)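 Seeds or propagules were planted 0.5 cm deep in silt loam, with flood water held at 1.5 to 3 cm. Compound in 50/50 aqueous/acetone was pipetted into the flood water at about 0.5, 0.25, 0.125 and 0.063 kg/ha. Injury was rated visually on a 0-9 scale against a control 3-4 weeks after treatment.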

[…], PRESL. = Preemergence weed control under flooded paddy conditions, MOOVA (Monochoria); conditions: preemergence weeds, rated three to four weeks after treatment
Outline: as §5

SAGITTARIA PYGMAEA, L. = assay: Preemergence weed control under flooded paddy conditions, SAGPY (Arrowhead (Pygmaea)); conditions: preemergence weeds, rated three to four weeks after treatment
Outline: as §5

[12] = system: ORYZA SATIVA, L. TEBONNET; assay: Rice tolerance to post-transplant applications under flooded paddy conditions, ORYSAT (Rice, Tebonnet); conditions: post-transplant rice, rated three to four weeks after treatment;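 further: applied to flooded soil surface three days after transplanting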
Outline: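 Two ten-day-old Tebonnet rice seedlings transplanted into silt loam, flooded 1.5–3 cm; three days later the water surface treated with compounds in acetone/water at about 0.5, 0.25, 0.125 and 0.063 kg/ha. Visual 0–9 injury rating versus control after 3–4 weeks in greenhouse.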

CCOC(=O)Cn1c(=O)[nH]c(=O)n(-c2cc(Oc3c(F)cc(C(F)(F)F)cc3Cl)ccc2C#N)c1=O [Compound 10, Ethyl 3-{5-[(2-chloro-α,α,α,6-tetrafluoro-p-tolyl)oxy]-2-cyanophenyl}tetrahydro-2,4,6-trioxo-s-triazine-1(2H)-acetate]
ABUTH, herbicide rating (0-9) ([1]; Rate 0.125 kg/ha): 9.0 | ABUTH, herbicide rating (0-9) ([1]; Rate 0.250 kg/ha): 9.0 | ABUTH, herbicide rating (0-9) ([1]; Rate 0.500 kg/ha): 9.0 | CHEAL, herbicide rating (0-9) (CHENOPODIUM ALBUM, L. [2]; Rate 0.125 kg/ha): 9.0 | CHEAL, herbicide rating (0-9) (CHENOPODIUM ALBUM, L. [2]; Rate 0.250 kg/ha): 9.0 | CHEAL, herbicide rating (0-9) (CHENOPODIUM ALBUM, L. [2]; Rate 0.500 kg/ha): 9.0 | ABUTH rating ([3]; Rate 0.125 kg/ha): 0.0 | ABUTH rating ([3]; Rate 0.250 kg/ha): 0.0 | ABUTH rating ([3]; Rate 0.500 kg/ha): 0.0 | AMBEL rating ([4]; Rate 0.125 kg/ha): 0.0 | AMBEL rating ([4]; Rate 0.250 kg/ha): 0.0 | AMBEL rating ([4]; Rate 0.500 kg/ha): 0.0 | CASOB rating (CASSIA OBTUSIFOLIA, L.; Rate 0.125 kg/ha): 0.0 | CASOB rating (CASSIA OBTUSIFOLIA, L.; Rate 0.250 kg/ha): 0.0 | CASOB rating (CASSIA OBTUSIFOLIA, L.; Rate 0.500 kg/ha): 0.0 | CHEAL rating (CHENOPODIUM ALBUM, L. [5]; Rate 0.125 kg/ha): 9.0 | CHEAL rating (CHENOPODIUM ALBUM, L. [5]; Rate 0.250 kg/ha): 9.0 | CHEAL rating (CHENOPODIUM ALBUM, L. [5]; Rate 0.500 kg/ha): 9.0 | ECHCG rating ([6]; Rate 0.125 kg/ha): 0.0 | ECHCG rating ([6]; Rate 0.250 kg/ha): 0.0 | ECHCG rating ([6]; Rate 0.500 kg/ha): 0.0 | SETVI rating ([7]; Rate 0.125 kg/ha): 0.0 | SETVI rating ([7]; Rate 0.250 kg/ha): 0.0 | SETVI rating ([7]; Rate 0.500 kg/ha): 0.0 | GLXMAW rating ([8]; Rate 0.125 kg/ha): 0.0 | GLXMAW rating ([8]; Rate 0.250 kg/ha): 0.0 | GLXMAW rating ([8]; Rate 0.500 kg/ha): 0.0 | ORYSAT rating ([9]; Rate 0.125 kg/ha): 2.0 | ORYSAT rating ([9]; Rate 0.250 kg/ha): 2.0 | ORYSAT rating ([9]; Rate 0.500 kg/ha): 2.0 | TRZAWO rating ([10]; Rate 0.125 kg/ha): 0.0 | TRZAWO rating ([10]; Rate 0.250 kg/ha): 0.0 | TRZAWO rating ([10]; Rate 0.500 kg/ha): 0.0 | ZEAMX rating (ZEA MAYS L.; Rate 0.125 kg/ha): 0.0 | ZEAMX rating (ZEA MAYS L.; Rate 0.250 kg/ha): 0.0 | ZEAMX rating (ZEA MAYS L.; Rate 0.500 kg/ha): 0.0 | CYPIR herbicidal rating (CYPERUS IRIA; Rate 0.063 kg/ha): 9.0 | CYPIR herbicidal rating (CYPERUS IRIA; Rate 0.125 kg/ha): 9.0 | CYPIR herbicidal rating (CYPERUS IRIA; Rate 0.250 kg/ha): 9.0 | CYPIR herbicidal rating (CYPERUS IRIA; Rate 0.500 kg/ha): 9.0 | CYPSE herbicidal rating ([11]; Rate 0.063 kg/ha): 0.0 | CYPSE herbicidal rating ([11]; Rate 0.125 kg/ha): 0.0 | CYPSE herbicidal rating ([11]; Rate 0.250 kg/ha): 0.0 | MOOVA herbicidal rating ([…], PRESL.; Rate 0.063 kg/ha): 9.0 | MOOVA herbicidal rating ([…], PRESL.; Rate 0.125 kg/ha): 9.0 | MOOVA herbicidal rating ([…], PRESL.; Rate 0.250 kg/ha): 9.0 | MOOVA herbicidal rating ([…], PRESL.; Rate 0.500 kg/ha): 9.0 | SAGPY herbicidal rating (SAGITTARIA PYGMAEA, L.; Rate 0.063 kg/ha): 0.0 | SAGPY herbicidal rating (SAGITTARIA PYGMAEA, L.; Rate 0.125 kg/ha): 0.0 | SAGPY herbicidal rating (SAGITTARIA PYGMAEA, L.; Rate 0.250 kg/ha): 0.0 | SAGPY herbicidal rating (SAGITTARIA PYGMAEA, L.; Rate 0.500 kg/ha): 0.0 | ORYSAT herbicidal rating (rice tolerance) ([12]; Rate 0.063 kg/ha): 0.0 | ORYSAT herbicidal rating (rice tolerance) ([12]; Rate 0.125 kg/ha): 1.0 | ORYSAT herbicidal rating (rice tolerance) ([12]; Rate 0.250 kg/ha): 1.0 | ORYSAT herbicidal rating (rice tolerance) ([12]; Rate 0.500 kg/ha): 1.0
